Consider 3 molecules from the NIST ThermoML archive (doi:10.1021/je050294+).

The conditions of this data set: 101.33 kPa, Liquid; for speed of sound: Linear variable-path acoustic interferometer.

Each structure is given as a SMILES string. ± gives the expanded uncertainty stated by the source.

Regarding `C=C1CCC2CC1C2(C)C` (stereo not drawn) [β-pinene], the mass density (in general, mass per unit of volume) reads like this: (283.15 K) 878.97 ± 0.55 kg/m3; (298.15 K) 866.99 ± 0.55 kg/m3; (313.15 K) 854.89 ± 0.56 kg/m3. Moreover, the speed of sound – broadly, how fast a sound wave travels through the sample – is 1355.9 ± 1.8 m/s (283.15 K), 1295 ± 1.8 m/s (298.15 K) and 1237.4 ± 1.7 m/s (313.15 K).
As for `CCC(C)O` (stereo not drawn) [butan-2-ol], the mass density (283.15 K) came out at 815.11 ± 0.59 kg/m3, the mass density (298.15 K) turned out to be 803 ± 0.6 kg/m3 and the mass density (313.15 K) stood at 790.06 ± 0.61 kg/m3. The speed of sound by setting is: (283.15 K) 1266.6 ± 1.7 m/s; (298.15 K) 1212.4 ± 1.7 m/s; (313.15 K) 1158 ± 1.7 m/s.
Regarding `CCCCO` [butan-1-ol], the mass density runs as follows: (283.15 K) 817.48 ± 0.23 kg/m3; (298.15 K) 806.17 ± 0.23 kg/m3; (313.15 K) 794.51 ± 0.24 kg/m3. Besides, the speed of sound is, setting by setting: (283.15 K) 1292.2 ± 1.4 m/s; (298.15 K) 1240.7 ± 1.4 m/s; (313.15 K) 1191.4 ± 1.4 m/s.
